The text below walks through data of US20160022733A1, “NOVEL FORMULA OF IRON BASED NANOCOMPOSITES FOR RAPID AND EFFICIENT TREATMENT OF IRON DEFICIENCY ANEMIA” (NANOTECH FOR PHOTOELECTRONICS RESEARCH, priority 2013, published 2016).

This test has as its system Life-threatening iron-deficiency anemic rats. In words: Hemoglobin concentration after single oral dose in rats with induced life-threatening hemorrhagic anemia. Format: in vivo, Albino rats of the Wisconsin Holtzman strain. Particulars: Ferric Chloride given orally to anemic rats (group 4). The procedure: Part II: Animal Trial Experimental Design • Five weeks old Albino rats of the Wisconsin Holtzman strain, weighing 150-160 g, were divided into six, as showing below Rats of groups 1-5 were exposed daily to blood withdrawal from inner canthus of eyes. The hemoglobin concentration of collected blood samples in heparinized tubes was measured by colorimetric method using commercially available kit (Drabkin's solution). […] Rats of control group were not exposed to any blood withdrawal. After induction of Life-threatening hemorrhagic anemia, all rats were fasted for 6 hours prior their oral administration with different treatments and doses. […] Two control groups were allocated for this pilot experiment; group 5 where rats were exposed to Life-threatening hemorrhagic anemia and treated with the vitamins mixture dissolved with Nano sized magnetite (Ascorbic, folic and nicotinic acids), and group 6 where rats were non-anemic and administered distilled water (Table 1). Rats of different groups were left for 3 days after oral administration of different treatments, fed ad libitum on balanced diet containing iron and clean tap water. Blood samples were collected on 4th and 7th day after dosing and Hb concentration was measured using colorimetric method.

For `[Cl][Fe]([Cl])[Cl]` [Ferric Chloride], the “Effect on Hb. concentration” value is listed as “corrected the Hb. concentration but achieved neither the levels in Nano-sized magnetite groups nor the level in control non-anemic rats”.
